Like-named read-outs stand apart in the source and are kept apart here.
Tests used:
[1] = test system: LSK Flk2^− cells; test: Ex vivo culture and expansion of sorted LSK Flk2- cells in media with PTEN and/or GSK-3β inhibitors; assay type: cell-based, wild-type (C57Bl/6) mice; settings: 1 μM CHIR99021, 200 nM BpV(pic); for expansion of LSK cells compared to control: 100 LSK Flk2- cells seeded, 17 and 23 days culture; for Fold expansion of LSK Flk2- cells after 28 days culture: compared to media without inhibitor
Description: LSK or LSK Flk2^− cells were sorted into 96-well U-bottom tissue culture plates at 100 cells/well with 200 μl media/well. Cells were incubated at 37° C., 5% O2, 5% CO2 (balance N2) for the indicated number of days. One-half total volume of media (see Table 1, below for the base media) was carefully pipetted from the top and replaced with fresh media every other day.
One hundred LSK Flk2^− cells were sorted from wild-type (C57Bl/6) mice and cultured in (1) media, (2) media+1 μM CHIR99021 (a GSK-3(3β inhibitor, a gift from Dr. Sheng Ding), (3) media+200 nM Dipotassium Bis-peroxo(picolinato)oxovanadate (BpV(pic), a PTEN inhibitor, available from Calbiochem, Cat. No. 203705), (4) media+1 μM CHIR99021+200 nM BpV(pic), (5) media+200 nM Shikonin (also a PTEN inhibitor, available from Calbiochem, Cat. No. 565850), and (6) media+200 nM Shikonin+1 μM CHIR99021. (FIGS. 3B-C). Cells were cultured as described above. Cells were examined at 17 days of culture (FIG. 3B, original magnification 100×) and 23 days (FIG. 3C, original magnification 40×).
LSK Flk2^− cells at 28 days culture in the indicated media conditions were examined (FIG. 3D, original magnification 200×).
Fold expansion of LSK Flk2^− cells after 28 days culture in (1) media, (2) media+BpV(pic), (3) media+CHIR99021, and (4) media+CHIR99021+BpV(pic) were analyzed.
One hundred LSK Flk2^− cells are sorted from wild-type (C57Bl/6) mice and are cultured in (1) media, (2) media+an GSK-3β antibody, (3) media+an anti-PTEN antibody, and (4) media+anti-GSK-3β and anti-PTEN antibodies. Cells are cultured as described above. Cells are examined at 9 days, 17 days and 23 days of culture.
One hundred LSK Flk2^− cells are sorted from wild-type (C57Bl/6) mice and are cultured in (1) media, (2) media+GSK-3β siRNA, (3) media+PTEN siRNA, and (4) media+GSK-3β siRNA and PTEN siRNA. Cells are cultured as described above. Cells are examined at 9 days, 17 days and 23 days of culture.

[2] = test system: lethally irradiated (10Gy) CD45.1^+ recipient mice; test: Transplantation of cultured LSK Flk2- cells into lethally irradiated recipients; donor repopulation in peripheral blood; assay type: in vivo; settings: 28-day cultures; 1000 re-sorted LSK Flk2- cells (CD45.2+) + 2×10^5 competitor cells per mouse; peripheral blood at 4 weeks post-transplant
Description: Cells were harvested from the wells prior to transplantation by pipetting up and down several times before transferring to a fresh tube. Residual was then collected by adding more media and repeating. Cells were washed in DMEM (Invitrogen, Cat. No. 31053) without phenol red and added to the appropriate number of whole bone marrow rescue cells from a congenic donor (for 200,000 rescue cells+1,000 re-sorted LSK Flk2^− cells (FIG. 3F-H) or the non-adherent product of 10 days culture of 100 LSK Flk2^− cultured cells (FIG. 3I-K) per mouse as indicated). Cells were injected into lethally irradiated (10 Grays, single dose) Ptprc (CD45.1^+) recipient mice through the tail vein using an insulin syringe.
Repopulation was measured at 4 weeks post-transplant by collection of peripheral blood, red blood cell lysis, and staining of CD45.1 (recipient) compared to CD45.2 (donor) engraftment using antibodies purchased from eBiosciences (FITC conjugated CD45.2 (Cat. No. 11-0454-85) and PE-Cy5 conjugated CD45.1 (Cat. No. 15-0453-82)). Mice transplanted with rescue/competitor cells only were used as a control to determine the limits of repopulation detection. Multi-lineage reconstitution was determined by CD3, B220 (for lymphoid) and Gr1, Mac-1 (for myeloid), as described above.
Cells cultured for 28 days in (1) media, (2) media+BpV(pic), (3) media+CHIR99021 and (4) media+CHIR99021 (1 μM)+BpV(pic) (200 nM) were re-sorted for LSK Flk2^− cells. One thousand LSK Flk2^− cells (CD45.2^+) from each media condition were transplanted into lethally irradiated (10Gy) CD45.1^+ recipient mice along with 2×10^5 congenic whole bone marrow competitor cells. At 4 weeks post-transplant, peripheral blood was analyzed for donor (FIG. 3G) and multi-lineage (FIG. 3H) engraftment. […] The horizontal-dashed line represents the average ‘engraftment’ of mice transplanted with competitor cells only and, thus, the limit of detectability for true engraftment.

[3] = test system: lethally irradiated (10Gy) CD45.1^+ recipient mice; test: Observation of transplant recipients for leukogenesis and health; settings: recipients of LSK Flk2- cells cultured with inhibitor(s); up to 16 weeks post-transplantation
[4] = test system: lethally irradiated (10Gy) CD45.1^+ recipient mice; settings: mouse, in vivo

Molecule | expansion of LSK cells compared to control [1] | Fold expansion of LSK Flk2- cells after 28 days culture [1] | mice showing >1% engraftment [2] | mice showing any sign of leukogenesis [3] | mice showing any sign of leukogenesis [4]
Cc1c[nH]c(-c2cnc(NCCNc3ccc(C#N)cn3)nc2-c2ccc(Cl)cc2Cl)n1 [CHIR99021] | greater expansion | significant expansion | 4/8 | no mice | –
Dipotassium Bis-peroxo(picolinato)oxovanadate [BpV(pic)] | greater expansion | significant expansion | 0/10 | – | no mice
